# pIC50: −log10 of the molar value.
# Columns and labels:
# [1] = target: T1, NaV1.3 (Homo sapiens, UniProt Q9NY46); assay: VIPR optical membrane potential assay with electrical stimulation, NaV1.3; format: cell-based; settings: Table 9, NaV 1.3 receptors
# T1 construct: expressed in transfected cells; host or cells: HEK293
# Description: (§1) Antagonist properties of test compounds were assessed as follows. Cells expressing the NaV of interest were placed into microtiter plates. After an incubation period, the cells were stained with fluorescent dyes sensitive to the transmembrane potential. The test compounds were added to the microtiter plate. The cells were stimulated with either chemical or electrical means to evoke a NaV dependent membrane potential change from unblocked channels, which was detected and measured with trans-membrane potential-sensitive dyes. Antagonists were detected as a decreased membrane potential response to the stimulus.
# (§2) VIPR® Optical Membrane Potential Assay Method with Electrical Stimulation
# The following is an example of how NaV1.3 inhibition activity is measured using the optical membrane potential method#2. Other subtypes are performed in an analogous mode in a cell line expressing the NaV of interest.
# HEK293 cells stably expressing NaV1.3 are plated into 96-well microtiter plates. After an appropriate incubation period, the cells are stained with the voltage sensitive dyes CC2-DMPE/DiSBAC2(3) as follows.
# (§3) 2X CC2-DMPE=20 μM CC2-DMPE: 10 mM CC2-DMPE is vortexed with an equivalent volume of 10% pluronic, followed by vortexing in required amount of HBSS containing 10 mM HEPES. Each cell plate will require 5 mL of 2×CC2-DMPE. 50 μL of 2×CC2-DMPE is added to wells containing washed cells, resulting in a 10 μM final staining concentration. The cells are stained for 30 minutes in the dark at RT.
# 2X DISBAC2(3) with ABSC1=6 μM DISBAC2(3) and 1 mM ABSC1: The required amount of 10 mM DISBAC2(3) is added to a 50 ml conical tube and mixed with 1 μL 10% pluronic for each mL of solution to be made and vortexed together. Then HBSS/HEPES is added to make up 2× solution. Finally, the ABSC1 is added.
# The 2X DiSBAC2(3) solution can be used to solvate compound plates. Note that compound plates are made at 2× drug concentration. Wash stained plate again, leaving residual volume of 50 Add 50 μL/well of the 2X DiSBAC2(3) w/ABSC1. Stain for 30 minutes in the dark at RT.
# (§4) The instrument comprises a microtiter plate handler, an optical system for exciting the coumarin dye while simultaneously recording the coumarin and oxonol emissions, a waveform generator, a current- or voltage-controlled amplifier, and a device for inserting electrodes in well. Under integrated computer control, this instrument passes user-programmed electrical stimulus protocols to cells within the wells of the microtiter plate.
# • 1. Insert or use electrodes into each well to be assayed. • 2. Use the current-controlled amplifier to deliver stimulation wave pulses for 3 s. Two seconds of pre-stimulus recording are performed to obtain the un-stimulated intensities. Five seconds of post-stimulation recording are performed to examine the relaxation to the resting state. Data Analysis
# (§5) Data are analyzed and reported as normalized ratios of background-subtracted emission intensities measured in the 460 nm and 580 nm channels. Background intensities are then subtracted from each assay channel. Background intensities are obtained by measuring the emission intensities during the same time periods from identically treated assay wells in which there are no cells. The response as a function of time is then reported as the ratios obtained using the following formula: […]
# (§6) The data is further reduced by calculating the initial (Ri) and final (Rf) ratios. These are the average ratio values during part or all of the pre-stimulation period, and during sample points during the stimulation period. The response to the stimulus R=Rf/Ri is then calculated.
# Control responses are obtained by performing assays in the presence of a compound with the desired properties (positive control), such as tetracaine, and in the absence of pharmacological agents (negative control). Responses to the negative (N) and positive (P) controls are calculated as above. The compound antagonist activity A is defined as: […]
# [2] = target: T2, CaV2.2 (Homo sapiens, UniProt Q00975); assay: VIPR optical membrane potential assay with electrical stimulation, CaV2.2; format: cell-based; settings: Table 9, CaV 2.2 receptors
# T2 construct: expressed in transfected cells; host or cells: HEK293
# Description: A. Optical Methods for Assaying CaV Inhibition Properties of Compounds:
# as §1, with “CaV” for “NaV”, “with” for “with either chemical or”
# as §2
# The following is an example of how CaV2.2 inhibition activity is measured using the optical membrane potential method. Other subtypes are performed in an analogous mode in a cell line expressing the CaV of interest.
# HEK293 cells stably expressing CaV2.2 are plated into 96-well microtiter plates. After an appropriate incubation period, the cells are stained with the voltage sensitive dyes CC2-DMPE/DiSBAC2(3) as follows.
# as §3, with “Pluronic,” for “pluronic,”
# Vortex in required amount of Bath X with beta-cyclodextrin. Each 96 well cell plate will require 5 ml of 2XCC2DMPE. Wash plate with ELx405 with Bath X, leaving a residual volume of 50 μL/well. Add 50 μL of 2XCC2DMPE & […] to each well. Stain for 30 minutes in the dark at RT.
# Allow solution to sit for 10 minutes. Slowly mix in 370 mM BaCl2. This solution can be used to solvate compound plates. Note that compound plates are made at 1.5× drug concentration and not the usual 2X. Wash CC2 stained plate, again, leaving residual volume of 50 μL. Add 100 uL/well of the AY17 solution. Stain for 15 minutes in the dark at RT. Run plate on the optical reader.
# as §4
# Insert or use electrodes into each well to be assayed.
# Use the current-controlled amplifier to deliver stimulation wave pulses for 3-5 s. Two seconds of pre-stimulus recording are performed to obtain the un-stimulated intensities. Five seconds of post-stimulation recording are performed to examine the relaxation to the resting state.
# as §5, §6
# Control responses are obtained by performing assays in the presence of a compound with the desired properties (positive control), such as mibefradil, and in the absence of pharmacological agents (negative control).
# T1 sequence (Q9NY46 whole entry): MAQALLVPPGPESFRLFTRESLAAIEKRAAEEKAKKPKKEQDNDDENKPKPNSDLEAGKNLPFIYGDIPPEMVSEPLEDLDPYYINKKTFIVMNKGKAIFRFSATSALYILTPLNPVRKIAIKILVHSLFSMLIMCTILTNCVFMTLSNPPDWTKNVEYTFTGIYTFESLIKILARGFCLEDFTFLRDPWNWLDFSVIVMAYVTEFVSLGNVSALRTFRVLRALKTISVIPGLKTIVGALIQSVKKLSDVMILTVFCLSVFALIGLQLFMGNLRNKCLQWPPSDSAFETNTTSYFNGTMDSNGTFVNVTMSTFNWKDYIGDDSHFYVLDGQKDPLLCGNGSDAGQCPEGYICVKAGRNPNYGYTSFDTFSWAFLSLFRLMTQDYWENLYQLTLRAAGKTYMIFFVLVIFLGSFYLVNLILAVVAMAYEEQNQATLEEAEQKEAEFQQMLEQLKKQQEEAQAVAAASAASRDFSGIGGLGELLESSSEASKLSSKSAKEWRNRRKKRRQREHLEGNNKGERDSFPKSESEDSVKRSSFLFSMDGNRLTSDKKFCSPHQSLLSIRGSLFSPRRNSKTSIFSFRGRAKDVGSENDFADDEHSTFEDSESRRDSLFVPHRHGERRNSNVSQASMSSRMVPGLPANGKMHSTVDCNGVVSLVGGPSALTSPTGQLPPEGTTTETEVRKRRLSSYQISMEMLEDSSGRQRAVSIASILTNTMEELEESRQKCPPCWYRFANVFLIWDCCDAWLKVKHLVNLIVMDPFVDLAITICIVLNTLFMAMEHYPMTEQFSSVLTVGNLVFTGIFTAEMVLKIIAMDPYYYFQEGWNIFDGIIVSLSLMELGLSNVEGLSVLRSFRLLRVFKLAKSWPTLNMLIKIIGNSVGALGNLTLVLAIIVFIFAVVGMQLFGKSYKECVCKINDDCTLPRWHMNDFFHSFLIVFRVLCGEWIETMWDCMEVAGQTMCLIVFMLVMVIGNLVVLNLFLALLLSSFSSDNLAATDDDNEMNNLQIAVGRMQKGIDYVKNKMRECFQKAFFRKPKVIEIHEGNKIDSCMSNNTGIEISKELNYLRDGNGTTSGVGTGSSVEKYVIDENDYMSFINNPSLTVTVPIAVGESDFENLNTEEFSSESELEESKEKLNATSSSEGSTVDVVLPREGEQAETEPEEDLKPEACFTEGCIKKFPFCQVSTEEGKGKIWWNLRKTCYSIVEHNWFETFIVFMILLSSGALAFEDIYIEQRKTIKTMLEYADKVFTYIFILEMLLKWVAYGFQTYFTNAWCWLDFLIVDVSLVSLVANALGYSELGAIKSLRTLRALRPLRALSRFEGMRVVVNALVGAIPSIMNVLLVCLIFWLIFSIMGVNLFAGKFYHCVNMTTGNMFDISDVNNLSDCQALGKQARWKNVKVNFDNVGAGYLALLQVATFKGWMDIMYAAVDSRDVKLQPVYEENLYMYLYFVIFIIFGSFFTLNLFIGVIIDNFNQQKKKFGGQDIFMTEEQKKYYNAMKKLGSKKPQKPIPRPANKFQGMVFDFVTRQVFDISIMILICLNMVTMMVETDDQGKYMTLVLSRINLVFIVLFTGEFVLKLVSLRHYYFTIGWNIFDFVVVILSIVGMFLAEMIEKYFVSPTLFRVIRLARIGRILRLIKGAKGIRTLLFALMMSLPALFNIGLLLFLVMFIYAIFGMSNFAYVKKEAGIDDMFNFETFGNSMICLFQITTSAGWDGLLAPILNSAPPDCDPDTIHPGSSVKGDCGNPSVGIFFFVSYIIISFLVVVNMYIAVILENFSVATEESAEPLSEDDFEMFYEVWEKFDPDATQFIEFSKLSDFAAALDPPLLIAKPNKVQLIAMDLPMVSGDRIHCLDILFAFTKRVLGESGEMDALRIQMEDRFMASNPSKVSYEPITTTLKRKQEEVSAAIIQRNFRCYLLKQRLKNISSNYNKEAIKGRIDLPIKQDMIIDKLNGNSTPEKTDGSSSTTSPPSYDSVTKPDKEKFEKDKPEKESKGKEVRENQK
Compound,pIC50 [1],pIC50 [2]
CCN(Cc1ccccc1)C(=O)c1cnc(N2CCCCC2)nc1-c1ccccc1F [compound 237],< 5.00,5.00 to 5.70
CC1CC(C)CN(C(=O)c2cnc(NCc3cccc(Cl)c3)nc2-c2ccc(C#N)cc2)C1 (centres unmarked) [compound 238],< 5.00,< 5.00
CCN(Cc1cccc(C)c1)C(=O)c1cnc(NC2CCCC2)nc1-c1ccc(C#N)cc1 [compound 239],< 5.00,5.00 to 5.70
Cc1cccc(-c2nc(N3CCOCC3)ncc2C(=O)N(Cc2ccccc2)C(C)C)c1 [compound 240],< 5.00,< 5.00
CC1CCN(c2ncc(C(=O)N(C)C3CCCCC3)c(-c3ccc(C#N)cc3)n2)CC1 [compound 241],< 5.00,< 5.00
O=C(NCc1ccccc1C(F)(F)F)c1cnc(N2CCOCC2)nc1-c1ccccc1F [compound 242],< 5.00,< 5.00
CCN(Cc1ccccc1)C(=O)c1cnc(N2CCOCC2)nc1-c1cccc(C)c1 [compound 243],< 5.00,< 5.00
CCN(Cc1ccccc1)C(=O)c1cnc(NCc2ccc(C)o2)nc1-c1ccc(C#N)cc1 [compound 244],< 5.00,< 5.00
N#Cc1ccc(-c2nc(NCC3CCCCC3)ncc2C(=O)N2CCCCC2)cc1 [compound 245],< 5.00,< 5.00
CCN(Cc1cccc(C)c1)C(=O)c1cnc(N(C)CC)nc1-c1ccccc1F [compound 246],< 5.00,5.00 to 5.70
CCN(Cc1cccc(C)c1)C(=O)c1cnc(N2CCOCC2)nc1-c1ccc(C#N)cc1 [compound 247],< 5.00,< 5.00
N#Cc1ccc(-c2nc(NCc3ccccc3C(F)(F)F)ncc2C(=O)NCC2CC2)cc1 [compound 248],< 5.00,< 5.00
CC(=O)NCCNc1ncc(C(=O)N2CCC(C)CC2)c(-c2ccc(-c3ccccc3)cc2)n1 [compound 251],< 5.00,5.00 to 5.70
O=C(c1cnc(NCc2ccccc2C(F)(F)F)nc1-c1ccccc1F)N1CCOCC1 [compound 252],< 5.00,< 5.00
CCC(C)Nc1ncc(C(=O)NC2CCCCC2C)c(-c2ccccc2F)n1 (centres unmarked) [compound 253],< 5.00,< 5.00
COc1cccc(OC)c1CNc1ncc(C(=O)N(C)CC(C)C)c(-c2ccccc2F)n1 [compound 255],< 5.00,< 5.00
COCCNc1ncc(C(=O)N(C)C2CCCCC2)c(-c2ccc(C#N)cc2)n1 [compound 256],< 5.00,< 5.00
COCCCNC(=O)c1cnc(NCC2CC2)nc1-c1cccc(C)c1 [compound 257],< 5.00,< 5.00
COCCCNC(=O)c1cnc(NCCc2ccc(OC)cc2)nc1-c1cccc(C)c1 [compound 258],< 5.00,< 5.00
CCN(Cc1ccccc1)C(=O)c1cnc(N2CCCC(C(N)=O)C2)nc1-c1ccc(C#N)cc1 (centres unmarked) [compound 259],< 5.00,< 5.00

Compound,pIC50 [1],pIC50 [2]
N#Cc1ccc(-c2nc(NCc3ccc4c(c3)OCO4)ncc2C(=O)N2CCCC2)cc1 [compound 260],< 5.00,< 5.00
Cc1ccc(CNc2ncc(C(=O)N3CCC(C)CC3)c(-c3ccc(C#N)cc3)n2)o1 [compound 261],< 5.00,< 5.00
CCCCNc1ncc(C(=O)N(C)CC(C)C)c(-c2cccc(C)c2)n1 [compound 262],< 5.00,< 5.00
CC(C)CN(C)C(=O)c1cnc(NCc2ccc3c(c2)OCO3)nc1-c1ccc(C#N)cc1 [compound 263],< 5.00,5.00 to 5.70
Cc1cccc(-c2nc(NCc3ccc4c(c3)OCO4)ncc2C(=O)N2CCOCC2)c1 [compound 264],< 5.00,< 5.00
CCN(Cc1cccc(C)c1)C(=O)c1cnc(NCCCOC)nc1-c1ccc(C#N)cc1 [compound 265],< 5.00,< 5.00
CCN(Cc1cccc(C)c1)C(=O)c1cnc(N2CCOCC2)nc1-c1cccc(C)c1 [compound 266],< 5.00,< 5.00
CC(=O)N1CCN(c2ncc(C(=O)N3CCCCC3)c(-c3ccc(C#N)cc3)n2)CC1 [compound 267],< 5.00,< 5.00
CCN(Cc1cccc(C)c1)C(=O)c1cnc(NCCCOC)nc1-c1ccccc1F [compound 268],< 5.00,< 5.00
CCN(Cc1ccccc1)C(=O)c1cnc(NCc2ccc3c(c2)OCO3)nc1-c1ccc(C#N)cc1 [compound 269],< 5.00,< 5.00
CC(C)CN(C)C(=O)c1cnc(N2CCCC2)nc1-c1ccccc1F [compound 270],< 5.00,< 5.00
COc1ccc(CCN(C)c2ncc(C(=O)N(C)CC(C)C)c(-c3ccc(C#N)cc3)n2)cc1OC [compound 271],< 5.00,< 5.00
COc1ccccc1CCNC(=O)c1cnc(N2CCCC2)nc1-c1cccc(C)c1 [compound 272],< 5.00,< 5.00
CCC(C)Nc1ncc(C(=O)N(C)CC)c(-c2cccc(C)c2)n1 (centres unmarked) [compound 273],< 5.00,< 5.00
COCCCNc1ncc(C(=O)N2CCCCC2)c(-c2cccc(C)c2)n1 [compound 274],< 5.00,< 5.00
COCCNc1ncc(C(=O)N(C)C2CCCCC2)c(-c2ccccc2F)n1 [compound 276],< 5.00,< 5.00
CC(C)N(Cc1ccccc1)C(=O)c1cnc(NCC2CC2)nc1-c1ccccc1F [compound 277],< 5.00,5.00 to 5.70
CC1CC(C)CN(C(=O)c2cnc(N3CCOCC3)nc2-c2ccccc2F)C1 (centres unmarked) [compound 279],< 5.00,< 5.00
COc1cccc(OC)c1CNc1ncc(C(=O)N(C)C2CCCCC2)c(-c2ccc(C#N)cc2)n1 [compound 280],< 5.00,< 5.00
CC(=O)NCCNC(=O)c1cnc(N2CCCC2)nc1-c1ccc(-c2ccccc2)cc1 [compound 281],< 5.00,< 5.00
